According to patent US9657006B2, “Macrocyclic factor VIIa inhibitors” (BRISTOL-MYERS SQUIBB COMPANY, priority 2013, dated 2017):
Where a name gives a salt, the structure may show the parent alone. Read-outs that look alike come from different tables or passages of the source.

Assays:
[1] = from CNCc1cc(NC(=O)COCc2cccc(C(Nc3ccc4c(N(C(=O)OC(C)(C)C)C(=O)OC(C)(C)C)ncc(F)c4c3)C(=O)O)c2)ccc1S(=O)(=O)C1CC1; amide bond; 15-membered ring; BOP/DMAP/DIPEA; DCM/DMF; 20.7 mM; 25.0 °C; 13.0 h; 2 steps
[2] = amide bond, 15-membered ring, HATU/NMM, DMF, 25.0 °C, 12.0 h
[3] = target: T1, FVIIa (Homo sapiens, UniProt P08709); test: FVIIa-Xase Ki (37° C.); type: biochemical
T1 construct: with about 1% of the total amount in the proteolytically active form factor VIIa
Description: The effectiveness of compounds of the present invention as inhibitors of the coagulation Factors, VIIa, IXa, Xa, XIa, XIIa, plasma kallikrein or thrombin, tissue kallikrein and activated protein C, can be determined using a relevant purified serine protease, respectively, and an appropriate synthetic substrate. The rate of hydrolysis of the chromogenic or fluorogenic substrate by the relevant serine protease was measured both in the absence and presence of compounds of the present invention. […] A decrease in the rate of absorbance or fluorescence change in the presence of inhibitor is indicative of enzyme inhibition. Such methods are known to one skilled in the art. The results of this assay are expressed as the inhibitory constant, Ki.
Reactions were initiated by the addition of human FX (range of concentrations). […] The residual FVIIa is sufficient, when combined with PCPS, calcium and TF to catalyze the conversion of FX to Xa, and was increased by the addition of 5 pM human FVIIa. FXa in turn hydrolyses S2765, which was monitored for 60 min at 405 nm. FXase activity was derived from the parabolic change in absorbance over time according to Equation 2: Absorbance=½ at 2+bt+c (Eq. 2) where a is proportional to the rate of FX activation≡product≡vs; b is proportional to the hydrolysis of S2765 in the absence of FXa; c is the absorbance at t=0. […]

[4] = amide bond, 14-membered ring

T1 sequence (P08709 213-466 limits assumed): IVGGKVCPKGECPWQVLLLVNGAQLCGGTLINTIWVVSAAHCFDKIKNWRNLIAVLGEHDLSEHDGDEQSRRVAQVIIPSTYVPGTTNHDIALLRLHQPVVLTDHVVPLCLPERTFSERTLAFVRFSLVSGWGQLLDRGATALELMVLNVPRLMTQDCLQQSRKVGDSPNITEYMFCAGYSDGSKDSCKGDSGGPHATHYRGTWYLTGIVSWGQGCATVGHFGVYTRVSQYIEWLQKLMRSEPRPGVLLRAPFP
T1 sequence (P08709 61-212 limits assumed): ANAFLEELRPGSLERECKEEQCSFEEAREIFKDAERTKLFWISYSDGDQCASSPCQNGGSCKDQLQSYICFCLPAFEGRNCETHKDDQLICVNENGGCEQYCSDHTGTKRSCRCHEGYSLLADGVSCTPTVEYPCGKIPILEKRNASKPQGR
T1 sequence (P13726 33-295 partner): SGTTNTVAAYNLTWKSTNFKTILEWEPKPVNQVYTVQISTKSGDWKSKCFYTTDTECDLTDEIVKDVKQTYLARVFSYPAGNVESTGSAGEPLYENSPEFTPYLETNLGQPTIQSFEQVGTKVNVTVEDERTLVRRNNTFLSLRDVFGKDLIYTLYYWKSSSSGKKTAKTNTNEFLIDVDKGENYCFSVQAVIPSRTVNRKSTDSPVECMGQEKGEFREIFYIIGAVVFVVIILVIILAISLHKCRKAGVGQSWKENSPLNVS

CN1Cc2cc(ccc2S(=O)(=O)C2CC2)NC(=O)COCc2cccc(c2)C(Nc2ccc3c(N(C(=O)OC(C)(C)C)C(=O)OC(C)(C)C)ncc(F)c3c2)C1=O (stereo not shown)
ring closure, crude yield [1]: 48%

COc1ccc2cc1[C@H](C)CN(C)C(=O)Nc1ccc(S(=O)(=O)C3CC3)c(c1)CN(C)C(=O)C2Nc1ccc2c(N(C(=O)OC(C)(C)C)C(=O)OC(C)(C)C)nccc2c1 (stereo partly shown)
ring closure, yield after HPLC ([2]; from CNCc1cc(NC(=O)N(C)C[C@@H](C)c2cc(C(Nc3ccc4c(N(C(=O)OC(C)(C)C)C(=O)OC(C)(C)C)nccc4c3)C(=O)O)ccc2OC)ccc1S(=O)(=O)C1CC1, 1.11 mM): 11%

CN1CCc2cccc(c2)C(Nc2ccc3c(N)nccc3c2)C(=O)N(C)Cc2cc(ccc2S(=O)(=O)C2CC2)NC1=O (stereo not shown) [Example 13, trifluoroacetic acid salt]
Ki [3]: 6 nM

C[C@@H]1CC(=O)Nc2ccc(S(=O)(=O)C3CC3)c(c2)CN(C)C(=O)C(Nc2ccc3c(N(C(=O)OC(C)(C)C)C(=O)OC(C)(C)C)ncc(F)c3c2)c2ccc(OCc3ccccc3)c1c2 (stereo partly shown)
ring closure, isolated yield ([4]; from CNCc1cc(NC(=O)C[C@@H](C)c2cc(C(Nc3ccc4c(N(C(=O)OC(C)(C)C)C(=O)OC(C)(C)C)ncc(F)c4c3)C(=O)O)ccc2OCc2ccccc2)ccc1S(=O)(=O)C1CC1, BOP): 19%

COc1cc2cc(c1)C(Nc1ccc3c(N(C(=O)OC(C)(C)C)C(=O)OC(C)(C)C)ncc(F)c3c1)C(=O)N(C)Cc1cc(ccc1S(=O)(=O)C1CC1)NC(=O)CC2 (stereo not shown)
ring closure, isolated yield ([4]; from CNCc1cc(NC(=O)CCc2cc(OC)cc(C(Nc3ccc4c(N(C(=O)OC(C)(C)C)C(=O)OC(C)(C)C)ncc(F)c4c3)C(=O)O)c2)ccc1S(=O)(=O)C1CC1, BOP/DMAP/DIPEA, DCM/DMF, 25.0 °C, 12.0 h): 69%

CN1CCc2cccc(c2)C(Nc2ccc3c(N(C(=O)OC(C)(C)C)C(=O)OC(C)(C)C)nccc3c2)C(=O)N(C)Cc2cc(ccc2S(=O)(=O)C2CC2)NC1=O (stereo not shown)
ring closure, yield after HPLC ([2]; from CNCc1cc(NC(=O)N(C)CCc2cccc(C(Nc3ccc4c(N(C(=O)OC(C)(C)C)C(=O)OC(C)(C)C)nccc4c3)C(=O)O)c2)ccc1S(=O)(=O)C1CC1): 61%

CN1Cc2cc(ccc2S(=O)(=O)C2CC2)NC(=O)CCc2cccc(c2)C(Nc2ccc3c(N(C(=O)OC(C)(C)C)C(=O)OC(C)(C)C)ncc(F)c3c2)C1=O (stereo not shown)
ring closure, isolated yield ([4]; from CNCc1cc(NC(=O)CCc2cccc(C(Nc3ccc4c(N(C(=O)OC(C)(C)C)C(=O)OC(C)(C)C)ncc(F)c4c3)C(=O)O)c2)ccc1S(=O)(=O)C1CC1, BOP/DMAP/DIPEA, DCM/DMF, 25.0 °C): 41%

CN1Cc2cc(ccc2S(=O)(=O)C2CC2)NC(=O)CCc2cc(ccc2O)[C@@H](Nc2ccc3c(N)ncc(F)c3c2)C1=O (single isomer, unassigned) [Example 16]
Ki [3]: 92 nM

CN1Cc2cc(ccc2S(=O)(=O)C2CC2)NC(=O)CCc2cccc(c2)C(Nc2ccc3c(N(C(=O)OC(C)(C)C)C(=O)OC(C)(C)C)nccc3c2)C1=O (stereo not shown)
ring closure, isolated yield ([4]; from CNCc1cc(NC(=O)CCc2cccc(C(Nc3ccc4c(N(C(=O)OC(C)(C)C)C(=O)OC(C)(C)C)nccc4c3)C(=O)O)c2)ccc1S(=O)(=O)C1CC1, BOP/DMAP/DIPEA, DCM/DMF, 23.3 mM, 25.0 °C, 12.0 h): 50%

CN1Cc2cc(ccc2S(=O)(=O)C2CC2)NC(=O)CCc2cc(ccc2C2CC2)C(Nc2ccc3c(N(C(=O)OC(C)(C)C)C(=O)OC(C)(C)C)ncc(F)c3c2)C1=O (stereo not shown)
ring closure, isolated yield ([4]; from CNCc1cc(NC(=O)CCc2cc(C(Nc3ccc4c(N(C(=O)OC(C)(C)C)C(=O)OC(C)(C)C)ncc(F)c4c3)C(=O)O)ccc2C2CC2)ccc1S(=O)(=O)C1CC1, BOP): 82%
